Consider 15 compounds from ChEMBL document CHEMBL1909046, “DrugMatrix in vitro pharmacology data”.

The target in data set [1] is T1, B2 bradykinin receptor (Homo sapiens, UniProt P30411). Note: in other assays of this panel Not Active means under 50% inhibition at 10 µM.
T1 sequence (P30411 whole entry): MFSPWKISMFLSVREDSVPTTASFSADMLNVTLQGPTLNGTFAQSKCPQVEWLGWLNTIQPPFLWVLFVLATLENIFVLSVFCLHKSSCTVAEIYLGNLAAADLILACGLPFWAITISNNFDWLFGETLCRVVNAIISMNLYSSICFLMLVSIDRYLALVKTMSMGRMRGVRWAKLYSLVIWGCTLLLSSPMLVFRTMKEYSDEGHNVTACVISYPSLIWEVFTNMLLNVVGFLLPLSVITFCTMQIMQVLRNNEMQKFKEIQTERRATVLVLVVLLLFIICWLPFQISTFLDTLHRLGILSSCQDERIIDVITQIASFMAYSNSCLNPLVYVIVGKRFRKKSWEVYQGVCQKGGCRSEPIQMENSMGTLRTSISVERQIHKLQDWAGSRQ
Format: cell membranes, Membrane. The following applies: chem-1.

Data set [2] deals with T2, Substance-K receptor (Homo sapiens, UniProt P21452).
T2 sequence (P21452 whole entry): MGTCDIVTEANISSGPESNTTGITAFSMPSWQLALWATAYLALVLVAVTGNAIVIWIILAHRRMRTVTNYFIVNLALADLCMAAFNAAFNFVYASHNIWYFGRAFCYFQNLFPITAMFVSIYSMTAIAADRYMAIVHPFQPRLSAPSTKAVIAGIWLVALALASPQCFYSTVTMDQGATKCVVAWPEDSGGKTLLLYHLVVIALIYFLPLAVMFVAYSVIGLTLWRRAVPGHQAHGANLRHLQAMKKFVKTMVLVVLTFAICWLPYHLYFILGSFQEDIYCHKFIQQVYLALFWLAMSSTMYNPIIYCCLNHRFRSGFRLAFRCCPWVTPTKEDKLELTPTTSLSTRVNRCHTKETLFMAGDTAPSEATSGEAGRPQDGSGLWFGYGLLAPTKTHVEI
Type of data set: cell membranes, CHO, Membrane.

Data set [3] in a line: DRUGMATRIX: Calcium Channel Type L, Phenylalkylamine radioligand binding (ligand: [3H] (-)-Desmethoxyverapamil (D-888)). Format: cell membranes, Rattus norvegicus, Wistar, Brain, Membrane. The following applies: Not Active = under 50% inhibition at 10 µM.
For data set [4], the target named is T3, 3-hydroxy-3-methylglutaryl-coenzyme A reductase (Homo sapiens, UniProt P04035).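 Note: enzyme inhibition assay of HMG-CoA reductase using radiolabeled [14C]HMG-CoA as substrate; in other assays of this panel Not Active means under 50% inhibition at 10 µM.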
T3 sequence (P04035 whole entry): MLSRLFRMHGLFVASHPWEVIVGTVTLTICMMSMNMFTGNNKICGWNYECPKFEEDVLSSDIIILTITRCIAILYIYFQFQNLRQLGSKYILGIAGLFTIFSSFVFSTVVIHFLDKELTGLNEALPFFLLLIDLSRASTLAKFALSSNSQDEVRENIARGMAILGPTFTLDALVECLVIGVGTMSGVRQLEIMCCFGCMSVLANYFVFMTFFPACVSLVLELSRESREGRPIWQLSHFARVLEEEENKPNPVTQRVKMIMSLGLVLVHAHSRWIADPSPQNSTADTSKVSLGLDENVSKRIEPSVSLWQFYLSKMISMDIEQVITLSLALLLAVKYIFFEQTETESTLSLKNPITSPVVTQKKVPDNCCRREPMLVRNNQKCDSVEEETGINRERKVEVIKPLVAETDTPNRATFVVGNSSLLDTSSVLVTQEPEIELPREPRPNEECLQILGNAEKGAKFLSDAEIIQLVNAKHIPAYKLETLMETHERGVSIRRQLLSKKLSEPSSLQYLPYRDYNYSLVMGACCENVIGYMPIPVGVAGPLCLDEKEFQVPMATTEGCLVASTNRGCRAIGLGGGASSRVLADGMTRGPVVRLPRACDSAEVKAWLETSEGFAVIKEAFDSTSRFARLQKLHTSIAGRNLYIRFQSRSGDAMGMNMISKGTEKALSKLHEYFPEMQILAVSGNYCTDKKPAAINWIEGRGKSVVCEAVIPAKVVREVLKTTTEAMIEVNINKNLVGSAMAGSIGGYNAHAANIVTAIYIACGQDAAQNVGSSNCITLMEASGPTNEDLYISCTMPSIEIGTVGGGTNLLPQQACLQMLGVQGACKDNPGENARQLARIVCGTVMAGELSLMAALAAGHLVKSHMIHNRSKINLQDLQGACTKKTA
Also on record: species or system Escherichia coli.

The target of data set [5] is Receptor tyrosine-protein kinase erbB-2 (Homo sapiens, UniProt P04626). Kind of data set: biochemical. Format: cell-based, Insect cells. The following applies: insect cells.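 Note: inhibition of HER2 kinase enzyme activity, measured with Poly(Glu:Tyr) as the phosphorylation substrate; in other assays of this panel Not Active means under 50% inhibition at 10 µM.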
Data set [6] deals with T4, Cytochrome P450 1A2 (Homo sapiens, UniProt P05177).
T4 sequence (P05177 whole entry): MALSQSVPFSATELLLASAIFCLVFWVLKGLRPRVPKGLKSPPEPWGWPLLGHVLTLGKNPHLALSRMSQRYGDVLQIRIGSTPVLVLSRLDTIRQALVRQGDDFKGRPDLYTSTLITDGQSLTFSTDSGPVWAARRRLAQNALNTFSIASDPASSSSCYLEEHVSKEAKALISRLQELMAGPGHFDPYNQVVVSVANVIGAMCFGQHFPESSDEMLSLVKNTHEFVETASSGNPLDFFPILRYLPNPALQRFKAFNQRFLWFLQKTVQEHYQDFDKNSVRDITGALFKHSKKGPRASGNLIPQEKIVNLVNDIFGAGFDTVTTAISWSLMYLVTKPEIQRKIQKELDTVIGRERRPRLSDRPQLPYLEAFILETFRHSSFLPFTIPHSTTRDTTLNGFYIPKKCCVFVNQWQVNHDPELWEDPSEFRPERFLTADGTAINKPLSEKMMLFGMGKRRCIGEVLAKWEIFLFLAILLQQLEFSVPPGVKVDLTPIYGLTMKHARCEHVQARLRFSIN
The following applies: bti-tn-5b1-4.

Chain of Receptor tyrosine-protein kinase erbB-2 (P04626 whole entry): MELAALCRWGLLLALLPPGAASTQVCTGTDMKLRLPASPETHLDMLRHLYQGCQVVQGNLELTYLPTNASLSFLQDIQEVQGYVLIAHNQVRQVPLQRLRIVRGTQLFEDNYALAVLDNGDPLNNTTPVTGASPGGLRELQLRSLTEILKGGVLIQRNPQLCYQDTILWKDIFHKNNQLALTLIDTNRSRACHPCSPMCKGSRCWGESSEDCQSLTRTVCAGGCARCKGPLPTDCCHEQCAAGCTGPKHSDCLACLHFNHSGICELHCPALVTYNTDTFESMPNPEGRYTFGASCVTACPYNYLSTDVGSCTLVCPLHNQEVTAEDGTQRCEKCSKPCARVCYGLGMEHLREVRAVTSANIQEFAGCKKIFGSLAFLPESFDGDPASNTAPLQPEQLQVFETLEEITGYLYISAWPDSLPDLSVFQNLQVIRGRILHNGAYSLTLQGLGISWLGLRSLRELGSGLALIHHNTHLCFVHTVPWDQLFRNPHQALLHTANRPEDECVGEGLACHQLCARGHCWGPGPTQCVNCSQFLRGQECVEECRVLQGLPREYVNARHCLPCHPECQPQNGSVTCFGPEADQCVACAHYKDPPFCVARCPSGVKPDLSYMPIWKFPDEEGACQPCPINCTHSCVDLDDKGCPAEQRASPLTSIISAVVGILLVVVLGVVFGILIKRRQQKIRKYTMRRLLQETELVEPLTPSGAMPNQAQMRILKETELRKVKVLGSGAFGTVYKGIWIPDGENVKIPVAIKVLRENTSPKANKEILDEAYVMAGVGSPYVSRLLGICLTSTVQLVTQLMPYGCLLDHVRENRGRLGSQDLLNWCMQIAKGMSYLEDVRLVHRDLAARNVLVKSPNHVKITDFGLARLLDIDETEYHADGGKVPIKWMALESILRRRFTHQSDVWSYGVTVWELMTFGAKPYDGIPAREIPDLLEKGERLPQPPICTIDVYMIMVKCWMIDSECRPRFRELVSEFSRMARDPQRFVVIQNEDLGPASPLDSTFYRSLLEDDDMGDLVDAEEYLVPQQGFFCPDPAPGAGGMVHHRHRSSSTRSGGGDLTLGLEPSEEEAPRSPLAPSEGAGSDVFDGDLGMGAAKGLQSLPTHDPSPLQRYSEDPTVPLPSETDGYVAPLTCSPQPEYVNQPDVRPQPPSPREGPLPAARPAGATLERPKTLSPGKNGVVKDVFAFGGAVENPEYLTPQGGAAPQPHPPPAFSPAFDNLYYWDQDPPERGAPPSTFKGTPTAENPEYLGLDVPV

For orientation: IC50 means the concentration at which inhibition is half-maximal. By Ki is commonly meant a measure of affinity in units of concentration, obtained from inhibition or displacement. Consider `CC(=O)O[C@@]12CO[C@@H]1C[C@H](O)[C@@]1(C)C(=O)[C@H](O)C3=C(C)[C@@H](OC(=O)[C@H](O)[C@@H](NC(=O)OC(C)(C)C)c4ccccc4)C[C@@](O)([C@@H](OC(=O)c4ccccc4)[C@H]21)C3(C)C.O.O.O` [DOCETAXEL], for which the IC50 result in data set [1] is “Not Active”; in data set [2] (read-out: IC50), 1560 nM; in data set [3] it was “Not Active”; in data set [4], “Not Active”; in data set [5], “Not Active”; in data set [6], “Not Active”. The Ki in data set [2] (read-out: Ki) is 521 nM; in data set [3], “Not Active”; in data set [6], “Not Active”.
Take `COc1cc2nc(N3CCN(C(=O)C4COc5ccccc5O4)CC3)nc(N)c2cc1OC` (stereo unspecified) [DOXAZOSIN]: the IC50 entry in data set [1], in data set [2] (cho), in data set [3], in data set [4], in data set [5] and in data set [6] was “Not Active” each time. In addition, the Ki result in data set [3] and in data set [6] was “Not Active” in each case.
Turning to `C[C@H]1c2cccc(O)c2C(=O)C2=C(O)[C@]3(O)C(=O)C(C(N)=O)=C(O)[C@@H](N(C)C)[C@@H]3[C@@H](O)[C@@H]21.O` [DOXYCYCLINE], the IC50 entry in data set [1], in data set [2] (cho), in data set [3], in data set [4], in data set [5] and in data set [6] was “Not Active” each time. The Ki result in data set [3] and in data set [6] was “Not Active” in each case.
As to `O=C(CCCN1CC=C(n2c(=O)[nH]c3ccccc32)CC1)c1ccc(F)cc1` [DROPERIDOL], the IC50 entry in data set [1] is “Not Active”; in data set [2] (cho) it was “Not Active”; in data set [3] (read-out: IC50), 4160 nM; in data set [4] it was “Not Active”; in data set [5], “Not Active”; in data set [6], “Not Active”. Besides, the Ki in data set [3] (read-out: Ki) was 4050 nM; in data set [6], “Not Active”.
For the compound `CC(C)[C@H]1C(=O)N2CCC[C@H]2[C@]2(O)O[C@](NC(=O)[C@@H]3C=C4c5cccc6[nH]cc(c56)C[C@H]4N(C)C3)(C(C)C)C(=O)N12` [ERGOCORNINE], the IC50 result in data set [1], in data set [2] (cho), in data set [3], in data set [4], in data set [5] and in data set [6] was “Not Active” throughout. Besides, the Ki result in data set [3] and in data set [6] was “Not Active” in each case.
For `OC(Cn1cncn1)(Cn1cncn1)c1ccc(F)cc1F` [FLUCONAZOLE], the IC50 result in data set [1], in data set [2] (cho), in data set [3], in data set [4], in data set [5] and in data set [6] was “Not Active” each time. The Ki result in data set [3] and in data set [6] was “Not Active” each time.
On to `CC(C)C(=O)Nc1ccc([N+](=O)[O-])c(C(F)(F)F)c1` [FLUTAMIDE], for which the IC50 result in data set [1], in data set [2] (cho), in data set [3], in data set [4], in data set [5] and in data set [6] was “Not Active” in each case. Also, the Ki entry in data set [3] and in data set [6] was “Not Active” in each case.
In the case of `CC1(C)O[C@@H]2C[C@H]3[C@@H]4CCC5=CC(=O)CC[C@]5(C)[C@@]4(F)[C@@H](O)C[C@]3(C)[C@]2(C(=O)CCl)O1` [HALCINONIDE], the IC50 entry in data set [1], in data set [2] (cho), in data set [3], in data set [4], in data set [5] and in data set [6] was “Not Active” in each case. The Ki result in data set [3] and in data set [6] was “Not Active” each time.
Take `O=c1[nH]c(=O)n([C@H]2C[C@H](O)[C@@H](CO)O2)cc1I` [IDOXURIDINE]: the IC50 entry in data set [1], in data set [2] (cho), in data set [3], in data set [4], in data set [5] and in data set [6] was “Not Active” each time. Further, the inhibition constant (Ki) entry in data set [3] and in data set [6] was “Not Active” throughout.
Take `CC1Cc2ccccc2N1NC(=O)c1ccc(Cl)c(S(N)(=O)=O)c1` (stereo unspecified) [INDAPAMIDE]: the IC50 entry in data set [1], in data set [2] (cho), in data set [3], in data set [4], in data set [5] and in data set [6] was “Not Active” throughout. Moreover, the Ki result in data set [3] and in data set [6] was “Not Active” each time.
On to `Nc1nc(N)nc(-c2cc(Cl)ccc2Cl)n1.O=C(O)/C=C\C(=O)O` [IRSOGLADINE MALEATE], for which the IC50 entry in data set [1], in data set [2] (cho), in data set [3], in data set [4], in data set [5] and in data set [6] was “Not Active” in each case. Further, the Ki result in data set [3] and in data set [6] was “Not Active” throughout.
On to `CCC(C)n1ncn(-c2ccc(N3CCN(c4ccc(OCC5COC(Cn6cncn6)(c6ccc(Cl)cc6Cl)O5)cc4)CC3)cc2)c1=O` (stereo unspecified) [ITRACONAZOLE], for which the IC50 result in data set [1], in data set [2] (cho), in data set [3], in data set [4], in data set [5] and in data set [6] was “Not Active” each time. Besides, the Ki result in data set [3] and in data set [6] was “Not Active” in each case.
For the compound `CCCCN1CCCC[C@H]1C(=O)Nc1c(C)cccc1C` [LEVOBUPIVACAINE], the IC50 result in data set [1], in data set [2] (cho), in data set [3], in data set [4], in data set [5] and in data set [6] was “Not Active” in each case. The Ki result in data set [3] and in data set [6] was “Not Active” throughout.
Turning to `CCCCc1nc(Cl)c(CO)n1Cc1ccc(-c2ccccc2-c2nnn[nH]2)cc1` [LOSARTAN], the IC50 entry in data set [1], in data set [2] (cho), in data set [3], in data set [4], in data set [5] and in data set [6] was “Not Active” each time. The Ki result in data set [3] and in data set [6] was “Not Active” each time.
Take `Sc1ncnc2nc[nH]c12` [MERCAPTOPURINE ANHYDROUS]: the IC50 result in data set [1], in data set [2] (cho), in data set [3], in data set [4], in data set [5] and in data set [6] was “Not Active” in each case. Also, the Ki entry in data set [3] and in data set [6] was “Not Active” in each case.
